# Values quoted from earlier work in US9370540B2, “K2 composition and the preparation method and use of the same” (SINPHAR PHARMACEUTICAL CO., LTD., priority 2014, dated 2016).
# System: A549 cells
# Conditions: from Molecular Carcinogenesis papers
smiles,measurement,value
C=C(CC[C@@H](C(=O)O)[C@H]1[C@H](O)C[C@@]2(C)C3=CC[C@H]4C(C)(C)C(=O)CC[C@]4(C)C3=CC[C@]12C)C(C)C [polyporenic acid C],"IC50, inhibiting the growth of lung cancer cells",about 15 μg/ml
